Measured values published in US5096925A, “N-substituted butyramide derivatives” (Ciba-Geigy Corporation, priority 1990, dated 1992).

Columns and labels:
[1] = hot plate test for analgesia in the mouse (mean response latency); type: in vivo; conditions: for dose that increases the mean response latency in the hot plate test: mice, intracerebroventricular administration
Text: The analgesic activity is demonstrable by potentiation of the analgesic effects of enkephalin and derivatives thereof, and by classical analgesic tests, such as the phenyl-p-benzoquinone induced writing test [J. Pharmacol. Exp. Therap. 125, 237 (1959)] and the hot plate test in the mouse [J. Pharmaol. Exp. Therap. 107, 385 (1953)].
The analgesic activity can be measured by the hot-plate test method in the mouse as follows and essentially as described in J. Pharmacol. Exp. Therap. 107, 385 (1953).
The compound is administered intravenously or intracerebroventricularly 15 minutes prior to the measurement of the response latency. Male CF, (Charles River) mice (20 g) are allowed food and water ad libitum up to the time of testing. The hot plate test for analgesia utilizes an apparatus with an electrically heated, thermostatically controlled copper plate (Analgesia Meter). A Plexiglas cylinder, 25.5 cm×16 cm (inner diameter) and open at both ends, confines the mice to the central area of the hot plate. The surface temperature is maintained at 55°±0.5° C. Response latency is recorded as the time (seconds) from contact with the hot plate until a jump occurs or at 240 seconds if no response occurs within this time. Animals are individually tested at 15 minutes following intravenous or intracerebroventricular (ICV) injection. Intracerebroventricular injections into the lateral ventricle are carried out according to the method of Haley and McCormick, as described in Brit. J. Pharmacol. 12; 12, 1957.
The mean response latency and standard error are calculated. Significance is determined using Student's unpaired t-test, 2-tailed comparison.

enkephalinase [2] = experiment: in vivo potentiation of the analgesic effect of met-enkephalin (enkephalinase inhibitory activity in vivo); design: species or system mouse; conditions: met-enkephalin (20 ug), intracerebroventricular administration
Procedure: (§1) The enkephalinase inhibitory activity can be determined in vivo, e.g. by measuring the potentiation of the analgesic activity of intracerebrally administered D-Ala^2 -met^5 -enkephalinamide or met-enkephalin in mice. The enkephalinase inhibitory activity is also determined in vivo by measuring the increase in endogenous brain enkephalin levels, or by direct measurement of striatum enkephalinase activity in mice.

enkephalinase [3] = target: T1, enkephalinase (Rattus norvegicus, UniProt P07861); experiment: in vitro inhibition of enkephalinase (3H-Tyr-gly-gly generation from 3H-Leu-enkephalin, synaptic membranes from rat striatum); type: biochemical; conditions: rat striatum synaptic membrane preparation, pH 6-5, 15 minutes at 30° C., 10^-6 M Bestatin
T1 construct: synaptic membrane preparation from rat striatum; from tissue; host or cells: rat striatum, synaptic membrane preparation
T1 sequence (P07861 1-750): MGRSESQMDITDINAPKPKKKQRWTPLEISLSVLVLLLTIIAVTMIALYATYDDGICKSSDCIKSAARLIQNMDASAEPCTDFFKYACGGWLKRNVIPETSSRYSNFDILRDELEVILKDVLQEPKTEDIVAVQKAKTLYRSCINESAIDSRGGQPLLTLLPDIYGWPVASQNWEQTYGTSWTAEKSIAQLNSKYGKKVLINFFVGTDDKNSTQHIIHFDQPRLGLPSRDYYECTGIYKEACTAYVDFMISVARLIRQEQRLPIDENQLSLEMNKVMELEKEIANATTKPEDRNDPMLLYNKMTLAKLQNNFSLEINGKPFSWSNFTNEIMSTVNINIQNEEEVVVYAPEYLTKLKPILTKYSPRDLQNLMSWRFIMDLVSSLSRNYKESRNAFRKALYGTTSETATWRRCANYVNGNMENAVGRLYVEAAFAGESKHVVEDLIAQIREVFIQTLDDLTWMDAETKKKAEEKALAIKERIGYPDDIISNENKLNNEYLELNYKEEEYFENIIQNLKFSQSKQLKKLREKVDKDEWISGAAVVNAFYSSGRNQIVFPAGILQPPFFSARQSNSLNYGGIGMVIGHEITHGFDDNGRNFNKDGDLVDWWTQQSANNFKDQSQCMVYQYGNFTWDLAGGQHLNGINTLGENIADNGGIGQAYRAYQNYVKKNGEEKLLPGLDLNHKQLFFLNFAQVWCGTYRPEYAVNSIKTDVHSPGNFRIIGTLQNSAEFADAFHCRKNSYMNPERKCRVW
Procedure: The enkephalinane inhibitory activity is determined in vitro by an adaptation of the method of Alstein et al. as described in Life Sciences 28, 185 (1981), as follows:
A mixture of a solution of the test compound in distilled water or distilled water and ethanol diluted with pH 6-5 buffer and of a synaptic membrane preparation from rat striatum is incubated at pH 6-5 with ^3 H-Leu-enkephalin for 15 minutes at 30° C., in the presence of 10^-6 M Bestatin (to inhibit aminopeptidase activity). The reaction is stopped by the addition of 30% acetic acid and the reaction product ^3 H-Tyr-gly-gly is separated from unreacted ^3 H-Leu-enkephalin on a Porapak O column followed by a Cu^++ -chelex column. The ^3 H-Tyr-gly-gly is counted by liquid scintillation. The amount of ^3 H-Tyr-gly-gly generated in the presence of test compound as compared to control is then calculated. An IC50 value representing the concentration of test compound required for 50% inhibition of ^3 H-Tyr-gly-gly generation is then determined graphically.

enkephalinase [4] = experiment: in vivo potentiation of the analgesic effect of D-Ala^2-Met^5-enkephalinamide (enkephalinase inhibitory activity in vivo); design: species or system mouse; conditions: s.c.
Procedure: as §1

Structure (SMILES) | dose that increases the mean response latency in the hot plate test [1] | IC50 (enkephalinase [3]) | also measured
CCOC(=O)[C@@H](Cc1ccccc1)C[C@H](Cc1ccccc1)C(=O)NCCC(=O)O (relative stereo) [N-[4-ethoxycarbonyl-(R*,R*)-2,4-dibenzylbutyryl]-3-aminopropionic acid] | ~0.03 µg |  | dose that potentiates the analgesic effect of met-enkephalin (enkephalinase [2]): about 0.01 ug
O=C(O)CCNC(=O)[C@@H](Cc1ccccc1)C[C@H](Cc1ccccc1)C(=O)O (relative stereo) [N-[(R*,R*)-2,4-dibenzyl-4-carboxybutyryl]-3-aminopropionic acid] |  | ~20 nM | 
O=C(O)CCCNC(=O)[C@@H](Cc1ccccc1)C[C@H](Cc1ccccc1)C(=O)O (relative stereo) [N-[(R*,R*)-2,4-dibenzyl-4-carboxybutyryl]-4-aminobutyric acid] | about 0.1 ug | ~20 nM | 
CC1(C)O[C@@H]2[C@@H](COC(=O)CCNC(=O)[C@H](Cc3ccccc3)C[C@@H](Cc3ccccc3)C(=O)O)OC(=O)[C@@H]2O1 [17/6, 2,3-O-isopropylidene-D-ribono-(1,4-lactone)-5-yl N-(2S,4S-dibenzyl-4-carboxybutyryl)-3-aminopropionate] |  |  | dose that potentiates the analgesic effect of D-Ala^2-Met^5-enkephalinamide (enkephalinase [4]): 30 mg/kg
CC1(C)O[C@H]2O[C@H]([C@H]3COC(C)(C)O3)[C@H](OC(=O)CCNC(=O)[C@H](Cc3ccccc3)C[C@@H](Cc3ccccc3)C(=O)O)[C@H]2O1 [Example 17/10, 1,2:5,6-di-O-isopropylidene-D-glucofuranos-3-yl N-(2S,4S-dibenzyl-4-carboxybutyryl)-3-aminopropionate] |  |  | minimal effective dose ([1]; iv, 0.25 h, mouse, effective at the dose "and lower"): ≤ 30 mg/kg
O=C(O)CCNC(=O)[C@H](Cc1ccccc1)C[C@@H](Cc1ccccc1)C(=O)O [N-(2S,4S-dibenzyl-4-carboxybutyryl)-3-aminopropionic acid] |  | ~8 nM | 
